# Test results from US20240131028A1, “CHEMOVACCINATION AGAINST PLASMODIUM INFECTION WITH SELECTIVE PLASMEPSIN X INHIBITORS” (Merck Sharp & Dohme LLC, priority 2021, published 2024).
# Tested on: ring stage parasites (Pf)
# Test: Parasite lactate dehydrogenase (LDH) growth assay (Parasite Assay, PfLDH Assay)
# Format: cell-based, P. falciparum
# Conditions: Plasmodium falciparum, 72 h, Table 3; 72 hours growth, LDH readout; read-out: EC50
# Description: The parasite stock was maintained at 4% haematocrit in RPMI-Hepes media buffered with sodium bicarbonate and supplemented with 5% heat inactivated human serum and 0.5% albumax. […] On the day of assay set up, a blood smear of the parasite culture was Giemsa stained and counted. The parasitemia was adjusted to 0.7% rings and the haematocrit was diluted to 2% in RPMI-Hepes media buffered with sodium bicarbonate and supplemented with 5% heat inactivated human serum and 0.5% albumax. 30 μl of diluted parasites are then added into 10 μl of media+compound in pre-prepared Greiner TC assay plates. Parasite assay plates were placed in gassed humidified boxes in single layer and allowed to incubate at 37° C. for 72 hours. After 72 hours growth, assay plates were sealed with parafilm and frozen flat, in single file at −80° C. overnight. On the following day, assay plates were allowed to thaw at room temperature for 4 hours to which an LDH assay was performed to measure parasite growth.
row,SMILES,EC50 [nM]
1,CC1(C)CC(=O)N([C@H](c2ccc(C#N)cc2)[C@H]2C[C@@H]2C(=O)N[C@H]2CC(C)(C)Oc3ccccc32)C(=N)N1 [Example 45A],2.8
2,CC1(C)CC(=O)N([C@@H](c2cncc(Cl)c2)[C@H]2C[C@@H]2C(=O)N[C@H]2C[C@H](C(F)(F)F)Oc3ccccc32)C(=N)N1 [Example 60B],100
3,CC1(C)CC(=O)N([C@@H](c2cccnc2)[C@@H]2[C@@H](C(=O)N[C@H]3C[C@H](C(F)(F)F)Oc4ccccc43)C2(C)C)C(=N)N1 [Example 43B],37
4,CC[C@]1(C)CC(=O)N([C@H](CCOC)[C@H]2C[C@@H]2C(=O)N[C@@H]2c3ccccc3OC(C)(C)[C@H]2O)C(=N)N1 [Example 61],6.9
5,COCC[C@H]([C@H]1C[C@@H]1C(=O)N[C@H]1CC(C)(C)Oc2cccc(OC)c21)N1C(=N)NC(C)(C)CC1=O [Example 74B],3.1
6,CC[C@]1(C)CC(=O)N([C@@H](CCOC)[C@H]2C[C@@H]2C(=O)N[C@H]2CC(C)(C)Oc3ccccc32)C(=N)N1 [Example 64B],195
7,COCC[C@H]([C@H]1C[C@@H]1C(=O)N[C@H]1C[C@@H](C(F)(F)F)Oc2ccccc21)N1C(=N)NC(C)(C)CC1=O [Example 24A],3.4
8,CCC1(CC)CC(=O)N(C[C@H]2C[C@@H]2C(=O)N[C@H]2CC(C)(C)Oc3ccccc32)C(=N)N1 [Example 5],49
9,COCC[C@H]([C@H]1C[C@@H]1C(=O)N[C@@H]1CC(C)(C)Oc2cccc(Cl)c21)N1C(=N)NC(C)(C)CC1=O [Example 116B],18
10,CC[C@]1(C)CC(=O)N([C@@H](CCOC)[C@H]2C[C@@H]2C(=O)N[C@H]2C[C@H](C(F)(F)F)Oc3ccccc32)C(=N)N1 [Example 62A],31
11,CCC1(CC)CC(=O)N([C@H](CCOC)[C@H]2C[C@@H]2C(=O)N[C@@H]2CC(C)(C)Oc3ccccc32)C(=N)N1 [Example 1B],250
12,CC1(C)CC(=O)N([C@H](c2cccnc2)[C@H]2C[C@@H]2C(=O)N[C@@H]2CC(C)(C)Oc3c(C(F)(F)F)ccc(F)c32)C(=N)N1 [Example 115A],6.6
13,CC1(C)CC(=O)N([C@H](c2cccnc2)[C@H]2C[C@@H]2C(=O)NC2CC(C)(C)Oc3c(F)cc(F)cc32)C(=N)N1 (stereo partly drawn) [Example 122A],2.3
14,COCC[C@H]([C@H]1C[C@@H]1C(=O)N[C@H]1CC(C)(C)Oc2ccccc21)N1C(=N)N[C@](C)(C(C)C)CC1=O [Example 20],5.3
15,COCC[C@H]([C@H]1C[C@@H]1C(=O)N[C@H]1CC(C)(C)Oc2cccc(F)c21)N1C(=N)NC(C)(C)CC1=O [Example 88A],5.2
16,COCC[C@H]([C@H]1C[C@@H]1C(=O)NC1CC(C)(C)Oc2c(Cl)cccc21)N1C(=N)NC(C)(C)CC1=O (stereo partly drawn) [Example 112A],18
17,CCC1(CC)CC(=O)N(C[C@@H]2[C@@H](C(=O)N[C@H]3CC(C)(C)Oc4ccccc43)C2(C)C)C(=N)N1 [Example 34],286
18,CC1(C)CC(=O)N([C@H](c2cccnc2)[C@H]2C[C@@H]2C(=O)N[C@H]2CC(C)(C)Oc3ccccc32)C(=N)N1 [Example 26],4.7

row,SMILES,EC50 [nM]
1,CCC1(CC)CC(=O)N(CC2C(C(=O)N[C@H]3C[C@H](C(F)(F)F)Oc4ccccc43)C2(C)C)C(=N)N1 (stereo partly drawn) [Example 31B],213
2,CC1(C)CC(=O)N([C@H](c2cccc(C#N)c2)[C@H]2C[C@@H]2C(=O)N[C@@H]2c3ccccc3OC(C)(C)[C@H]2O)C(=N)N1 [Example 51],5.3
3,CC1(C)CC(=O)N([C@H](c2cccnc2)[C@H]2C[C@@H]2C(=O)N[C@@H]2CC(C)(C)Oc3cccc(F)c32)C(=N)N1 [Example 86A],2.2
4,COCC[C@H]([C@H]1C[C@@H]1C(=O)N[C@@H]1CC(C)(C)Oc2cccc(F)c21)N1C(=N)NC(C)(C)CC1=O [Example 88B],10
5,Cc1ccc2c(c1)[C@@H](NC(=O)[C@H]1C[C@@H]1CN1C(=N)NC(C)(C)CC1=O)CC(C)(C)O2 [Example 128],280
6,CC1(C)CC(=O)N([C@H](c2cccnc2)[C@H]2C[C@@H]2C(=O)N[C@H]2CC(C)(C)Oc3c(C(F)(F)F)ccc(F)c32)C(=N)N1 [Example 115B],1
7,CC1(C)CC(=O)N(C[C@H]2C[C@@H]2C(=O)NC2CC(C)(C)Oc3c(C(F)(F)F)ccc(F)c32)C(=N)N1 (stereo partly drawn) [Example 99],130
8,CC1(C)CC(=O)N(C(c2cccc(C#N)c2)[C@H]2C[C@@H]2C(=O)NC2CC(C)(C)Oc3ccc(F)cc32)C(=N)N1 (stereo partly drawn) [Example 53A],3.1
9,CCC1(CC)CC(=O)N(C[C@H]2C[C@@H]2C(=O)N[C@H]2CC(C)(C)Oc3ccc(F)cc32)C(=N)N1 [Example 7A],135
10,CC1(C)CC(=O)N(C[C@H]2C[C@@H]2C(=O)N[C@H]2CC(C3CC3)Oc3ccccc32)C(=N)N1 (stereo partly drawn) [Example 140A],220
11,CC[C@]1(C)CC(=O)N([C@H](c2cncc(F)c2)[C@H]2C[C@@H]2C(=O)N[C@H]2C[C@H](C(F)(F)F)Oc3ccccc32)C(=N)N1 [Example 68],0.3
12,CCC1(C)C[C@H](NC(=O)[C@H]2C[C@@H]2CN2C(=N)NC(C)(C)CC2=O)c2ccccc2O1 (stereo partly drawn) [Example 78],300
13,CCC1(CC)CC(=O)N([C@H](CCOC)[C@H]2C[C@@H]2C(=O)N[C@@H]2c3ccccc3C[C@@H]2O)C(=N)N1 [Example 13],24
14,CC[C@]1(C)CC(=O)N([C@H](CCOC)[C@H]2C[C@@H]2C(=O)NC2CC(C)(C)Oc3ccc(OC(F)(F)F)cc32)C(=N)N1 (stereo partly drawn) [Example 129A],1.3
15,CCC1(CC)CC(=O)N([C@@H](c2cccnc2)[C@@H]2[C@@H](C(=O)N[C@H]3C[C@H](C(F)(F)F)Oc4ccccc43)C2(C)C)C(=N)N1 [Example 44A],8.3
16,CCC1(CC)CC(=O)N([C@H](CCOC)[C@H]2C[C@@H]2C(=O)N[C@H]2C[C@@H](C(F)(F)F)Oc3ccccc32)C(=N)N1 [Example 14],0.9
17,COCC[C@H]([C@H]1C[C@@H]1C(=O)N[C@H]1CC(C)(C)Oc2cc(C)ccc21)N1C(=N)NC(C)(C)CC1=O [Example 83A],6.6

# Same assay, conditions: Plasmodium falciparum, 72 h, Table 4; 72 hours growth, LDH readout; read-out: EC50 (Table 4)
row,SMILES,EC50 [nM]
1,CCC1(CC)CC(=O)N([C@H](CCOC)[C@H]2C[C@@H]2C(=O)N[C@@H]2CC(C)(C)Oc3ccccc32)C(=N)N1 [Example 141],4.7

# Same assay, conditions: Table 3; 72 hours growth, LDH readout; read-out: EC50
row,SMILES,EC50 [nM]
1,CC[C@]1(C)CC(=O)N([C@H](CCOC)[C@H]2C[C@@H]2C(=O)NC2CC(C)(C)Oc3ccc(OC(F)(F)F)cc32)C(=N)N1 (stereo partly drawn) [Example 129B],2.5
2,CC1(C)CC(=O)N([C@H](c2cccnc2)[C@H]2C[C@@H]2C(=O)NC2CC(C)(C)Oc3cc(F)ccc32)C(=N)N1 (stereo partly drawn) [Example 77B],2.3
3,"COCC[C@H]([C@H]1C[C@@H]1C(=O)NC1CC(C)(COC)Oc2ccccc21)N1C(=N)NC(C)(C)CC1=O (single isomer, unassigned) [Example 82B]",57
4,CC[C@@]1(C)CC(=O)N(C(c2cncc(F)c2)[C@H]2C[C@@H]2C(=O)N[C@H]2CC(C)(C)Oc3ccccc32)C(=N)N1 (stereo partly drawn) [Example 67B],0.6
5,COCC[C@H]([C@H]1C[C@@H]1C(=O)NC1CC(C)(C)Oc2c(Cl)cc(Cl)cc21)N1C(=N)NC(C)(C)CC1=O (stereo partly drawn) [Example 106B],10
6,"CC(C)C1(C)CC(NC(=O)[C@H]2C[C@@H]2CN2C(=N)NC(C)(C)CC2=O)c2ccccc2O1 (single isomer, unassigned) [Example 79C]",289
7,COCC[C@H]([C@H]1C[C@@H]1C(=O)NC1CC(C)(C)Oc2c(Cl)cccc21)N1C(=N)NC(C)(C)CC1=O (stereo partly drawn) [Example 112B],9.4
8,"COCC[C@H]([C@H]1C[C@@H]1C(=O)NC1CC(C)(COC)Oc2ccccc21)N1C(=N)NC(C)(C)CC1=O (single isomer, unassigned) [Example 82A]",24.4
9,"CCC1(CC)CC(=O)N(C[C@H]2C(C)[C@@H]2C(=O)N[C@H]2c3ccccc3CC2(C)O)C(=N)N1 (single isomer, unassigned) [Example 29B]",351
10,CC1(C)CC(=O)N(C[C@H]2C[C@@H]2C(=O)NC2CC(C)(C)Oc3c(Cl)cc(Cl)cc32)C(=N)N1 (stereo partly drawn) [Example 97B],220
11,"COCC1(C)CC(NC(=O)[C@H]2C[C@@H]2[C@@H](c2cccnc2)N2C(=N)NC(C)(C)CC2=O)c2ccccc2O1 (single isomer, unassigned) [Example 108B]",3.7
12,"CC[C@]1(C)CC(=O)N([C@H](CCOC)[C@H]2C[C@@H]2C(=O)NC2CC(C)(C)Oc3ccc(F)cc32)C(=N)N1 (single isomer, unassigned) [Example 130B]",2.4

# Same assay, conditions: Table 4; 72 hours growth, LDH readout; read-out: EC50 (Table 4)
row,SMILES,EC50 [nM]
1,"CCC1(CC)CC(=O)N([C@H](CCOC)[C@H]2C[C@@H]2C(=O)NC2CC(C)(C)Oc3cc(Cl)ccc32)C(=N)N1 (single isomer, unassigned) [Example 147B]",8.2
2,"CCC1(CC)CC(=O)N(C(CC(C)OC)[C@H]2C[C@@H]2C(=O)N[C@H]2CC(C)(C)Oc3ccccc32)C(=N)N1 (single isomer, unassigned) [Example 142D]",115
3,"CCC1(CC)CC(=O)N(C(CC(C)OC)[C@H]2C[C@@H]2C(=O)N[C@@H]2CC(C)(C)Oc3ccccc32)C(=N)N1 (single isomer, unassigned) [Example 143B]",2.4
